The results in this text go back to ChEMBL document CHEMBL1201862, “PubChem BioAssay data set” (2004).

One experiment concerns H4. The experiment can be described thus: Luminescence Cell-Based Dose Response HTS to Identify Activators of 5'UTR Stem-Loop Driven Prion Protein mRNA Translation in H4 Neuroglioblastoma Cells. [Related pubchem assays: 1829 (Project Summary), 1814 (Primary HTS)]. The experiment is classed as functional. The note with it: Homo sapiens.
Experiment [1] deals with T1, Mannose-6-phosphate isomerase (Homo sapiens, UniProt P34949).
T1 sequence (P34949 whole entry): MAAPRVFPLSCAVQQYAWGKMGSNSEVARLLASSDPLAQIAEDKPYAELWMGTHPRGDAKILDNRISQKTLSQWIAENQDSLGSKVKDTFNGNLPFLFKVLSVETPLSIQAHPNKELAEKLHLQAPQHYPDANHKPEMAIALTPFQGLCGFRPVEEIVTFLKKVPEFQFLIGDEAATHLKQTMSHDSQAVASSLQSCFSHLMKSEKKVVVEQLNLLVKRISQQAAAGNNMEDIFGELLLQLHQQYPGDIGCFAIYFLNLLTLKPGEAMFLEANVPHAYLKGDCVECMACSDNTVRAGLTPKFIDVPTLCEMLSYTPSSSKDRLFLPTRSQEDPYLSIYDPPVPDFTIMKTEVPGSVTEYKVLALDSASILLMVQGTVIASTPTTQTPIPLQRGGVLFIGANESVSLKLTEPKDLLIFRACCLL
In words: MPI inhibition at elevated mannose 6-phosphate – biochemical, fluorescence intensity, high mannose 6-phosphate, primary screen (AID 1220).

The nature of experiment [2]: Luminescence Cell-Based Dose Confirmation HTS to Identify Activators of 5'UTR Stem-Loop Driven Alpha-Synuclein mRNA Translation in H4 Neuroglioblastoma Cells. [Related pubchem assays: 1829 (Project Summary), 1814 (Primary HTS)]. Type of experiment: functional.
Experiment [3] is described as follows: viability of uninfected HEp-2 cells – cell-based, HTS, cytotoxicity control for RSV inhibitor project, dose response (AID 2410). Particulars: human respiratory syncytial virus. Type of experiment: functional.
The nature of experiment [4]: Luminescence Cell-Based Dose Response HTS to Identify Activators of Luciferase Translation or Activity in H4 […] Cells. [Related pubchem assays: 1829 (Project Summary), 1814 (Primary HTS)]. The experiment is classed as functional.
The target in experiment [5] is T1, Mannose-6-phosphate isomerase. The experiment can be described thus: MPI enzyme activity inhibition – biochemical, fluorescence intensity, coupled assay, primary screen (AID 1209).
Experiment [6] has as its system BJ. The experiment can be described thus: growth inhibition of engineered Ras-driven BJ cells – cell-based, alamar blue fluorescence, cherrypicked samples, dose response (AID 2631).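 Also: confirmatory dose-response assay in RAS-dependent BJ fibroblasts engineered with TERT, LT and ST, with cytotoxicity read by fluorescence.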 The note with it: Homo sapiens. The experiment is classed as functional.
Experiment [7] deals with BJ. The experiment can be described thus: cells. Type of experiment: functional, cell-based. The note with it: Homo sapiens.
Experiment [8] can be described thus: DRD fibroblast viability loss – cell-based, non-viral oncogenic, luminescence, dose response (AID 1934). Type of experiment: functional. The note with it: Homo sapiens.
The nature of experiment [9]: Luminescence Cell-Based Dose Response HTS to Identify Inhibitors of 5'UTR Stem-Loop Driven Prion Protein mRNA Translation in H4 Neuroglioblastoma Cells. [Related pubchem assays: 1827 (Project Summary), 1813 (Primary HTS)]. The experiment is classed as functional.
A short description of experiment [10]: luciferase reporter signal reduction – luminescence, H4-C neuroglioblastoma cells, dose response (AID 2458).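 Also: H4 neuroglioblastoma cells stably carrying a luciferase reporter gene fusion.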 The experiment is classed as functional, cell-based.
A further experiment in a line: cells. The experiment is classed as functional, cell-based.
In experiment [11] the test system is BJ. The experiment can be described thus: BJ-TERT fibroblast viability loss – cell-based, RAS-independent, luminescence, dose response (AID 1933). Particulars: Homo sapiens. Type of experiment: functional.
The nature of experiment [12]: alpha-synuclein stem-loop translation blockers – luminescence, H4 neuroglioblastoma cells, dose confirmation, confirmation (AID 2454).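 Also: H4 neuroglioblastoma cells carrying an alpha-synuclein 5'UTR luciferase reporter; potency for inhibition of the luciferase signal.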 Type of experiment: functional, cell-based.
Experiment [13] can be described thus: alpha-synuclein stem-loop luciferase translation blockers – H4 neuroglioma cells, luminescence, confirmation (AID 1988). The experiment is classed as functional, cell-based.
The nature of experiment [14]: luciferase reporter signal suppression in cells – H4 neuroglioma cells, luminescence, dose response (AID 1990). Type of experiment: functional, cell-based.
Experiment [15] deals with BJ. In words: BJ-TERT-LT-ST fibroblast viability loss – cell-based, RAS-independent, luminescence, dose response (AID 1935).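 Also: BJ fibroblasts immortalized with TERT plus LT and ST oncogenes.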 The experiment is classed as functional. The note with it: Homo sapiens.
Experiment [16] has as its target T2, Neuropeptide Y receptor type 2 (Homo sapiens, UniProt P49146).
T2 sequence (P49146 whole entry): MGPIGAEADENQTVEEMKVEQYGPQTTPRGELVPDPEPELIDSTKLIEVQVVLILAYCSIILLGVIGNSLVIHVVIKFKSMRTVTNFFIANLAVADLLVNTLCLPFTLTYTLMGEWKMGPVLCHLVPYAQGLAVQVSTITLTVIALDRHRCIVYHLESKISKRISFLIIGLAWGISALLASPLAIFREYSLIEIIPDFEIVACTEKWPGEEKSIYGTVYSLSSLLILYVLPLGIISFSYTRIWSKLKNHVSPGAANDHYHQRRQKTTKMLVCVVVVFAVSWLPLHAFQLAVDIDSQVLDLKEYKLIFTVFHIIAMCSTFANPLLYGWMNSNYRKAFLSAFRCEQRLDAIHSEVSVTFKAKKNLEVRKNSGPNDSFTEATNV
The experiment can be described thus: Fluorescence-based counterscreen for agonists of NPY-Y1: cell-based high-throughput dose response assay for agonists of NPY-Y2. Type of experiment: functional. In general terms: The purpose of a counterscreen is to sort out artefacts and off-target activity.

Experiment [17] deals with T3, Neuropeptide Y receptor type 1 (Homo sapiens, UniProt P25929).
T3 sequence (P25929 whole entry): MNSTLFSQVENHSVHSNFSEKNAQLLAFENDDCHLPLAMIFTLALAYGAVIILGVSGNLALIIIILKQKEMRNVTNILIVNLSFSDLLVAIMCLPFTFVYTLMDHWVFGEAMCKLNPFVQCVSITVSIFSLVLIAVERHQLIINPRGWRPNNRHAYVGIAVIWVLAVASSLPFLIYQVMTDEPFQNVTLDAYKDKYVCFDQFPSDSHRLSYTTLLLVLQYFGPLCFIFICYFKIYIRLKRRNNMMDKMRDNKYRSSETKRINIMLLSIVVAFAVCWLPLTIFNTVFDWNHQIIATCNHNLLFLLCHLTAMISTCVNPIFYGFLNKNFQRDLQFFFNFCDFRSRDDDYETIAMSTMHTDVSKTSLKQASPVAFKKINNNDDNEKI
In words: Fluorescence-based dose response cell-based high-throughput screening assay for agonists of NPY-Y1. [Related pubchem assays: 1697 (Screening assay (NPY-Y1 agonists).), 1359 (Screening assay (NPY-Y2 potentiators or agonists).), 1304 (Screening assay (NPY-Y1 potentiators or agonists).), 1704 (Screening assay (CNGC inhibitors).), 1791 (Summary AID.)]. Type of experiment: functional.

The test system of experiment [18] is HEK293. In words: Fluorescence-based counterscreen for potentiators or agonists of NPY-Y1: cell-based high-throughput dose response assay for inhibitors of cyclic nucleotide gated ion channel (CNGC) activity. In this assay, the parental HEK293 cell line transfected with a cyclic-nucleotide gated ion channel (CNGC)-based cAMP sensor is used to measure inhibition of isoproterenol-induced CNGC …. Type of experiment: functional. Particulars: Homo sapiens.

The target in the next experiment is Cytochrome P450 2C9 (Homo sapiens, UniProt P11712). Particulars: Potency.
Experiment [19] concerns the target T3, Neuropeptide Y receptor type 1. The experiment can be described thus: Fluorescence-based counterscreen for potentiators or agonists of NPY-Y2: cell-based high-throughput dose response assay for potentiators or agonists of NPY-Y1. Type of experiment: functional.
Experiment [20] has as its system HEK293. The experiment can be described thus: Fluorescence-based counterscreen for potentiators or agonists of NPY-Y2: cell-based high-throughput dose response assay to identify inhibitors of cyclic nucleotide gated ion channel (CNGC) activity. In this assay, the parental HEK293 cell line transfected with a cyclic-nucleotide gated ion channel (CNGC)-based cAMP sensor is used to measure inhibition of isoproterenol-induced CNGC activity by test compound. The note with it: Homo sapiens. The experiment is classed as functional.

In experiment [21] the target is T3, Neuropeptide Y receptor type 1. In words: Fluorescence-based counterscreen for agonists of NPY-Y2: cell-based high-throughput dose response assay for agonists of NPY-Y1. Type of experiment: functional.
Experiment [22] deals with T2, Neuropeptide Y receptor type 2. The experiment can be described thus: Fluorescence-based cell-based high-throughput dose response assay for agonists of NPY-Y2. [Related pubchem assays: 1703 (Screening assay (CNGC inhibitors).), 1359 (Screening assay (NPY-Y2 potentiators or agonists).), 1304 (Screening assay (NPY-Y1 potentiators or agonists).), 1710 (Screening assay (NPY-Y2 agonists).), 1791 (Summary AID.)]. The experiment is classed as functional.

For experiment [23] the target is unchanged. The experiment can be described thus: Fluorescence-based cell-based high-throughput dose response assay for potentiators or agonists of NPY-Y2. [Related pubchem assays: 1539 (Screening assay (NPY-Y2 potentiators or agonists).), 1703 (Screening assay (CNGC inhibitors).), 1359 (Screening assay (NPY-Y2 potentiators or agonists).), 1304 (Screening assay (NPY-Y1 potentiators or agonists).) …. Type of experiment: functional.

For experiment [24], the target named is Dual specificity protein phosphatase 3 (Homo sapiens, UniProt P51452). In words: inhibition constants for human DUSP3 – biochemical, colorimetric, SAR follow-up (AID 2004).

The source made the active and inactive calls. Rule as the data show it, for most assays here: actives have a measured EC50 and inactives only a lower limit. Where only a bound is given, the exact number is not on record here.

Chain of Dual specificity protein phosphatase 3 (P51452 whole entry): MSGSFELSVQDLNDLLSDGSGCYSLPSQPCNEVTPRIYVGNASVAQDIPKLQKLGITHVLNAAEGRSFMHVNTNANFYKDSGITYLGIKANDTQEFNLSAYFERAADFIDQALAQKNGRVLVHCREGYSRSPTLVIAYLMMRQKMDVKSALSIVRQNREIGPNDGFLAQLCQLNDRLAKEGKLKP
Chain of Cytochrome P450 2C9 (P11712 whole entry): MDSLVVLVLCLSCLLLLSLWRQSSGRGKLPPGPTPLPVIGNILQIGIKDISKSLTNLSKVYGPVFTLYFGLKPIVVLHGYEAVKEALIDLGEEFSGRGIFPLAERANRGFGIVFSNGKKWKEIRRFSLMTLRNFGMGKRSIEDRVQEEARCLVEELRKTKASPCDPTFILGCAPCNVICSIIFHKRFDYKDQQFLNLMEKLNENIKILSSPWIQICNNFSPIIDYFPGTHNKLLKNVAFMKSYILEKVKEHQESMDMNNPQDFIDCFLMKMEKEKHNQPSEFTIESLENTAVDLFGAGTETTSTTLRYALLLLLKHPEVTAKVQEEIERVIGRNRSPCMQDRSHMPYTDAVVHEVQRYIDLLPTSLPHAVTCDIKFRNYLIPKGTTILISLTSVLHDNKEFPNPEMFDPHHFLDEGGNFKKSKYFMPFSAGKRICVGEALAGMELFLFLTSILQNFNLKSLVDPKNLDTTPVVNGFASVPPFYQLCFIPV

A word on the EC50: it is the concentration needed to bring the measured effect to its halfway point. As usually defined, the IC50 is the concentration needed to halve the response being measured. One may read the CC50 as the concentration giving 50% cytotoxicity. As for `CCOC(=O)c1c(C)oc2c1c1c(c3ccccc32)OCN(Cc2ccccn2)C1`, the EC50 in the experiment with H4 was 0.816 µM (active); in [2], 1.87 µM (active); in experiment [4], 12.9 µM (active). Besides, the IC50 in [1] and in [5] was > 50 µM (not active) in each case. Also, the CC50 in experiment [3] is 40.2 µM (active).
For the compound `COc1ccc(S(=O)(=O)N2c3ccc(F)cc3CCC2C)cc1` (configuration not stated), the EC50 was 0.25 µM (active) in the experiment with BJ [6]; 1.21 µM (inconclusive) in the experiment on BJ [7]; 0.776 µM (active) in experiment [8]; < 0.1 µM (active) in [9]; 0.757 µM (active) in experiment [10]; > 12 µM (inconclusive) in “cells”. Besides, the EC50 was 0.675 µM (active) with BJ [11]; 1.01 µM (active) in [12]; < 0.1 µM (active) in experiment [13]; 1.8 µM (active) in [14]; 0.716 µM (inconclusive) in the experiment with BJ [15].
For `CSc1nc(-c2ccco2)nn1C(=O)c1ccccc1Cl`, the EC50 in experiment [16] and in [17] was > 35.4 µM (not active) in each case. For the same compound, the concentration for half-maximal inhibition (IC50) in the experiment with HEK293 [18] is reported as > 35.4 µM (not active).
As a reminder, the AC50 is the concentration giving half of the maximal activity seen. As for `C=CCOC(=O)C(C(C)=O)C(NC(=O)OC)c1ccc(Cl)cc1` (configuration not stated), on Cytochrome P450 2C9, the AC50 was 3.16 µM (inconclusive).
On to `CCN(CC)CC(O)Cn1c2ccccc2c2ccccc21` (configuration not stated), for which the EC50 was > 35.4 µM (not active) in experiment [19]; 1.49 µM (active) with HEK293 [20]; 12.5 µM (not active) in experiment [21]; 29.6 µM (not active) in experiment [22]; > 35.4 µM (not active) in experiment [23].
For orientation: Ki means a dissociation constant, usually derived from enzyme kinetics or from competition with a known ligand. In the case of `Cc1cccc(COc2ccc3c(c2)oc(=O)c2ccccc23)c1`, the Ki in experiment [24] was 26.4 µM (inactive).
